The text below walks through data of patent US10899714B2, “6-aminoisoquinoline compounds” (Aerie Pharmaceuticals, Inc., priority 2007, dated 2021).

Holding throughout (assay type): in vivo
Assay [1] can be described thus: Topical ocular composition (Example 212), allergic symptoms. To be noted: 0.50 wt % topical composition.
The nature of assay [2]: Topical ocular composition (Example 212), dry eye syndrome. The note with it: 0.50 wt % topical composition, drop twice per day.
Assay [3] in a line: Topical ocular composition (Example 212), hyperemia, redness and ocular irritation. The note with it: 0.50 wt % topical composition, drop as needed.
Assay [4] has as its system patient suffering from glaucoma. The assay can be described thus: Topical ocular composition (Example 212) lowering intraocular pressure. To be noted: 0.50 wt % topical composition. Here is the method:
Examples of such assays are described in the following reference, incorporated herein by reference: C. Liljebris, G. Selen. B. Resul, J. Sternschantz, and U. Hacksell, “Derivatives of 17-Phenyl-18, 19, 20-trinorprostaglandin F2α Isopropyl Ester: Potential Anti-glaucoma Agents”, Journal of Medicinal Chemistry, Vol. 38 (2) 1995, pp. 289-304.
Topical pharmaceutical compositions for lowering intraocular pressure are prepared by conventional methods and formulated as follows: […]
A compound according to this invention is used as the 6-aminoisoquinoline derivative. […]

Assay [5] is described as follows: Topical ocular composition (Example 212), neuroprotective effect. The note with it: 0.50 wt % topical composition, drop 4 times per day.

Where a name gives a salt, the structure may show the parent alone.

Regarding `O=C(CCl)Nc1ccc2cnccc2c1` [Example E1, 2-chloro-N-(isoquinolin-6-yl) acetamide], the allergic symptoms result in assay [1] (drop twice per day) is given as “substantially decreases allergic symptoms”. In addition, the dry eye syndrome result in assay [2] is recorded as “relieves dry eye syndrome”.
As for `NCC(=O)Nc1ccc2cnccc2c1` [Example E40, 2-amino-N-isoquinoline-6-yl-acetamide dihydrochloride], the “hyperemia, redness and ocular irritation” value in assay [3] is “substantially decreases hyperemia, redness and ocular irritation”.
Regarding `O=C(CNCc1ccccc1)Nc1ccc2cnccc2c1` [Example E58, 2-(benzylamino)-N-(isoquinolin-6-yl)acetamide], in assay [4] (drop twice per day), the intraocular pressure entry is given as “substantially decreases intraocular pressure”.
Take `O=C(Nc1ccc2cnccc2c1)OCc1ccccc1` [Example E87, benzylisoquinolin-6-ylcarbamate]: the allergic symptoms result in assay [1] (drop twice per day) is given as “substantially decreases allergic symptoms”. Besides, the dry eye syndrome result in assay [2] is on record as “relieves dry eye syndrome”.
As for `O=C(NCc1ccccc1)Nc1ccc2cnccc2c1` [Example E88, 1-benzyl-3-(isoquinolin-6-yl)urea], the allergic symptoms entry in assay [1] (drop as needed) is reported as “substantially decreases allergic symptoms”.
Take `O=C(CN1CCOCC1)Nc1ccc2cnccc2c1` [Example E105, N-(isoquinolin-6-yl)-2-morpholinoacetamide]: the “hyperemia, redness and ocular irritation” value in assay [3] was “substantially decreases hyperemia, redness and ocular irritation”.
Take `O=C(Nc1ccncc1)c1ccc(C2CC2C(=O)Nc2ccc3cnccc3c2)cc1` (stereo not shown) [Example E118, 4-(2-(isoquinolin-6-ylcarbamoyl)cyclopropyl)-N-(pyridin-4-yl)benzamide]: the intraocular pressure entry in assay [4] (drop twice a day or as needed) is “substantially decreases intraocular pressure”.
As to `CNC(=O)c1cccc(NCC(=O)Nc2ccc3cnccc3c2Cl)c1` [Example E119b, 3-(2-(5-chloroisoquinolin-6-ylamino)-2-oxoethylamino)-N-methyl benzamide], in assay [4] (drop twice a day or as needed), the intraocular pressure result was “substantially decreases intraocular pressure”.
Consider `CNC(=O)c1cccc(NCS(=O)(=O)Nc2ccc3cnccc3c2)c1` [Example E136, 3-((N-isoquinolin-6-ylsulfamoyl)methylamino)-N-methylbenzamide], for which the intraocular pressure result in assay [4] (drop twice per day) is recorded as “substantially decreases intraocular pressure”.
`N[C@@H](CSCC(C(=O)c1ccc(/C=C/C(=O)Nc2ccc3cnccc3c2)cc1)c1ccccc1)C(=O)O` (stereo partly drawn) [Example E207, (2R)-2-amino-3-(3-(4-((E)-3-(isoquinolin-6-ylamino)-3-oxoprop-1-enyl)phenyl)-3-oxo-2-phenylpropylthio)propanoic acid]: the neuroprotective agent result in assay [5] was “serves as a neuroprotective agent”. The intraocular pressure result in assay [4] (drop 4 times per day) is listed as “substantially decreases intraocular pressure”.
